Common to all, as to format: cell-based
One assay deals with A549 cells. Put plainly: Viability of A549 cells treated with compound 1 with TOPII drug VM26 or non-TOPII drug Taxol (WST-1). The procedure:
A549 cells were cultured with DMEM and 10% FBS. The cells were treated with different concentrations of compound 1 with or without TOPII drug, VM26 (FIG. 10A) or non TOPII drug, Taxol® (paclitaxel) (Sigma, Israel) (FIG. 10B).

In a further assay the test system is TOPIIα. Put plainly: Inhibition of VM26-induced TOPIIα degradation by compound 1 in HeLa cells (immunoblot). Conditions: 50 μM or 100 μM compound 1 for 1 hr, then 100 μM VM26. How it is done: HeLA cells were cultured with DMEM and 10% FBS. The cells were treated for 1 hr with solvent (50% DMSO, 50% PEG400) or 50 μM or 100 μM of compound 1, then for the indicated time with 100 μM of VM26.
Then the cells were harvested, alkaline extracted and treated with S7 DNAse (Roche, Germany) to release TOPII from the DNA. The amount of TOPIIα was assayed by immunoblot with specific antibodies (Santa-Cruz).

A further assay has as its target T1, Ring1-Bmi1 (Homo sapiens, UniProt P35226+Q06587).
T1 construct: expressed in transfected cells; host or cells: HeLa
T1 sequence (Q06587 1-406): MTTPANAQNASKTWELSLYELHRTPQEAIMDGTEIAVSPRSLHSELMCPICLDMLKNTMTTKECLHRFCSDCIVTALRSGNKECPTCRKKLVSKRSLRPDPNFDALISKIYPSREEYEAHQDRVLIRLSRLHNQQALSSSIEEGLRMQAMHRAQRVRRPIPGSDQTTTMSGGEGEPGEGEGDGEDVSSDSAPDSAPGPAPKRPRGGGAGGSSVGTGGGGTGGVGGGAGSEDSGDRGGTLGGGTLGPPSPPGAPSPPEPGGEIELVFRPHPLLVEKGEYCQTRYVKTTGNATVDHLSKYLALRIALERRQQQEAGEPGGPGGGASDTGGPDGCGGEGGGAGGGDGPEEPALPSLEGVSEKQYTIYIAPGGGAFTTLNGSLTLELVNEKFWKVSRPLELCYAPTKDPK
T1 sequence (P35226 1-326): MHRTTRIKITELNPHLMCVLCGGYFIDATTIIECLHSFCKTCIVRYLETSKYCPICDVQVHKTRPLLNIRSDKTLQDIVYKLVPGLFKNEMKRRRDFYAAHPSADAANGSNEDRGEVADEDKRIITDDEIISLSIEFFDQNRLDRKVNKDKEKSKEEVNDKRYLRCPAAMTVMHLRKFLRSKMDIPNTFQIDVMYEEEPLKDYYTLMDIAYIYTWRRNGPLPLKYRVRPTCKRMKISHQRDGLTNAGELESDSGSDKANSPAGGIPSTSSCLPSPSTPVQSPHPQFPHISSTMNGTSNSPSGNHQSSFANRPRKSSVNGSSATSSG
Put plainly: Ring1-Bmi1 ubiquitination activity in HeLa cells (Flag-Bmi1 immunoprecipitation, anti-HA immunoblot). The following applies: 100 μM compound 1, 6 hours. How it is done: HeLa cells were cultured with DMEM and 10% FBS. The cells were transfected with a plasmid encoding HA-ubiquitin, Bmi1-Flag and RING1A unless otherwise is indicated using Lipofectamine-2000 transfection reagent ((Invitrogen, CA, U.S.A.).
Twenty-four hours post-transfection the cells were treated for 6 hours with solvent (50% DMSO, 50% PEG400) or 100 μM compound 1 (FIG. 12).
The cells were harvested; Flag-Bmi1 was immunoprecipitated with anti-Flag antibodies (Sigma Israel). The amount of ubiquitinated Bmi1 was assayed by immunoblot with anti-HA antibodies (Roche, Germany).

For assay [1], the system named is A549, HeLa, MDA-MB-231, MDA-MB-468, HCT116 and Panc02.03 cells. Description: LD50 of compound 1 in various cancer cells (WST-1). The following applies: various types of cancer cells, 72 hours post treatment, WST-1, Prism. The procedure:
A549 cells (lung cancer) and HeLa cells ([…]) were cultured with DMEM and 10% FBS (FIG. 13A). MDA-MB-231 and MDA-MB-468 cells (breast cancer), HCT116 cells (colon cancer) and Panc02.03 cells (Pancreatic cancer) were cultured with RPMI and 10% FBS (FIG. 13B). The cells were treated with different concentrations of compound 1. Viability of the cells was tested seventy-two hours post treatment using WST-1 reagent (Roche, Germany). The LD50s were calculated using Prism software (Graphpad, Calif., U.S.A.).

Experimental findings from US8067473B2, “Methods for enhancing the therapeutic efficacy of topoisomerase inhibitors” (Teva Pharmaceutical Industries, Ltd., priority 2007, dated 2011) are described below.

For `O=C1C(=Cc2cccnc2)C(=O)c2ccccc21` [compound 1], the “synergistic effect with Taxol (non-TOPII drug)” value in the assay with A549 cells (A549 cells, compound 1 with Taxol (paclitaxel), 72 hours post treatment) is “no synergistic effect”. Also, in the assay on A549 cells (A549 cells, compound 1 with VM26, 72 hours post treatment, WST-1), the “increase of the potency of VM26” value was 10 fold. Also, in the assay on A549 cells (A549 lung cancer cells), the “synergistic effect with VM26 to reduce viability” value was “synergistic effect”. In addition, the “drug induced degradation of TOPIIα” value with TOPIIα is recorded as “inhibits”. Besides, the Ring1-Bmi-1 ubiquitination activity entry at Ring1-Bmi1 is given as “significant inhibition”. The compound also came in with an LD50 in assay [1] of 9 to 79 µM.
